US20110071146A1, “17BetaHSD Type 5 Inhibitor” (ASTELLAS PHARMA INC., priority 2006, published 2011)
Read-outs that look alike come from different tables or passages of the source.

Assays:
human 17βHSD type 5 = biological target: T1, human 17βHSD type 5 (Homo sapiens, UniProt P42330); assay: Measurement of enzyme activity of human 17βHSD type 5 (testosterone production from androstenedione, DELFIA); format: biochemical; settings: for IC50: purified human 17βHSD type 5, androstenedione 300 nM, NADPH 200 μM, pH 6.0, room temperature 2 hours
T1 construct: A full-length cDNA encoding human 17βHSD type 5 used in the pharmacological test; made in house; host or cells: Escherichia coli BL21
T1 sequence (P42330 1-323): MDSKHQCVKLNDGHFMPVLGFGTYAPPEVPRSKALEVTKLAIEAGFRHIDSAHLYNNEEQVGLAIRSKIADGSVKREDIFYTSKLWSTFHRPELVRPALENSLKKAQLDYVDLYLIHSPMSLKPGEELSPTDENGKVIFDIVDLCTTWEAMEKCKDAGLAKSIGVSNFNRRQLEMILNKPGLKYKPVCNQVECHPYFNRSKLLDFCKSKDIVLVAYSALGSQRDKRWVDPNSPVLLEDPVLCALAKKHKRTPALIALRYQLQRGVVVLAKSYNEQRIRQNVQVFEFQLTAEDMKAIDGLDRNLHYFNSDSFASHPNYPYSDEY
Description: (§1) An excellent selective inhibitory activity against human 17βHSD type 5 of the compounds of the present invention was confirmed by a test method described below. Further, the test may be performed by referring to the details of test procedure described in Maniatis, T. et al., Molecular Cloning—A Laboratory Manual Cold Spring Harbor Laboratory, NY and the like (1982). In addition, a gene encoding human 17βHSD type5 and type3 described in 1 and 2 below, and human 17βHSD type5 and type3 may be obtained by the method described in Mol. Endocrinol, 1971-1984, 11(13) (1997).
A full-length cDNA encoding human 17βHSD type 5 used in the pharmacological test of the present invention was obtained by the PCR method using a cDNA derived from a human lung cancer-derived cell line, A549 cells as a template. The nucleotide sequence of the obtained cDNA was analyzed by the dideoxyterminator method, and the clone matched with the known human 17βHSD type 5 sequence (GenBank accession No. NM_003739) was selected. Escherichia coli BL21 was transformed with a plasmid containing the cDNA, cultured on a large scale, and the proteins were purified by using GSTrapFF column (Amersham) and PreScissionProtease (Amersham). The purification was performed in accordance with the instructions attached to the GSTrapFF column.
(§2) Enzyme activity was measured referring to Trevor M. Penning, et al., Biochem. J., 351, 67-77, (2000). Specifically, using a 100 mM potassium phosphate buffer (pH 6.0), (1) the enzyme purified in above 1 at a final concentration of 10 μg/mL, (2) androstenedione at a final concentration of 300 nM, (3) NADPH at a final concentration of 200 μM and (4) a test substance at a final concentration of 3 μM were mixed to react at room temperature for 2 hours, and then the amount of testosterone produced was measured using DELFIA (registered trademark) Testosterone Reagents R050-201 (PerkinElmer). The measurement was performed in accordance with the attached instructions. The amount of reduction of testosterone production in the presence of the compound was obtained as a relative value with respect to the amount of testosterone in the absence of the enzyme set at 0% and the amount of testosterone produced in the absence of the compound set at 100%. Then, IC50 values were calculated by the Logistic regression method.

[1] = Measurement of concentrations of human 17βHSD type 5 inhibitor compounds in mouse tissues (plasma, prostate) after oral administration; format: in vivo; settings: male ICR mice, 2 hours after administration
Protocol: The concentrations in plasma and in prostate were measured after oral administration of a test substance. Male 8 to 15-week old ICR mice were used, and a solution or suspension obtained by adding 1 N NaOH solution and water in an equivalent amount to a test substance and stirring was used as an administration solution. The administration solution was administered orally once to mice, and after 2 hours, blood and a prostate were collected under ether anesthesia. The prostate was frozen and stored at −80° C. until measurement. The blood was centrifuged (3000 rpm, 15 min, 4° C.) after the addition of a minor amount of heparin, and the upper layer was collected as plasma and frozen and stored at −80° C. until measurement. 0.1 mL of the plasma was subjected to protein degeneration with 0.1 mL of acetonitrile and then centrifuged (15000 rpm, 7 min, 4° C.) to remove proteins and the supernatant thus obtained was used as an HPLC sample. The prostate was homogenized in a phosphate buffer solution (200 mM, pH 7.4, 0.5 mL), and then the whole volume was added to 3 mL of t-butyl methyl ether to perform extraction. The solvent was evaporated in a stream of nitrogen (15 min, 45° C.). The residue was resuspended in a Tris buffer solution (12.5 mM, pH 7.4, 0.3 mL) containing 2% BSA, and an equal volume of acetonitrile (0.3 mL) was added. Protein was removed as in the case of plasma and the supernatant was used as an HPLC measurement sample. Measurement was performed by an ordinary method using liquid chromatography (HPLC).
Column: STR ODS-II (registered trademark), particle size: 5 μm, inner diameter: 4.6 mm, length: 150 mm, joint type: Waters Mobile phase: 20 mM ammonium acetate:acetonitrile=7:3 or 17 mM ammonium acetate:acetonitrile=6:4 Flow rate: 1 mL/min Column temperature: 40° C. Injection volume: 50 μL

human 17βHSD type 3 = biological target: T2, human 17βHSD type 3 (Homo sapiens, UniProt P37058); assay: Measurement of enzyme activity of human 17βHSD type 3 (testosterone production from androstenedione, DELFIA); format: biochemical; settings: human 17βHSD type 3 (293 cell supernatant as enzyme source)
T2 construct: A full-length cDNA encoding human 17βHSD type 3 used in the pharmacological test; made in house; host or cells: human fetus kidney-derived 293 cells (transfected; supernatant of disrupted cells, not purified)
T2 sequence (P37058 1-310): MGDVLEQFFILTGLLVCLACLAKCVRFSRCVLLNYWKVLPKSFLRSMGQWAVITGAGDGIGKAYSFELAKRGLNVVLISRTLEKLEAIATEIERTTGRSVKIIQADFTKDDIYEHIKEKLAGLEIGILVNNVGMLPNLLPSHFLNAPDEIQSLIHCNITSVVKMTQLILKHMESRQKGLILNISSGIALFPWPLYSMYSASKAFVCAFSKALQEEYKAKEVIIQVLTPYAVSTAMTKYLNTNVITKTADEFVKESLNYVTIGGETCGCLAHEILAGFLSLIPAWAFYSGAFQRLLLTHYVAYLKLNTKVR
Description: as §1
A full-length cDNA encoding human 17βHSD type 3 used in the pharmacological test of the present invention was obtained by the PCR method using a cDNA derived from human testis as a template. The nucleotide sequence of the obtained cDNA was analyzed by the dideoxyterminator method, and the clone matched with the known human 17βHSD type 3 sequence (GenBank accession No. BC034281) was selected. Subsequently, a human fetus kidney-derived cell line, 293 cells was transformed with a plasmid containing the cDNA, and the cells were collected 24 hours later. The collected cells were then disrupted in a phosphate buffer solution containing 5% glycerol (500 μL per 100 mm-dish of a phosphate buffer solution (pH 7.4, 200 mM) containing 5% glycerol) and centrifuged (16000 rpm, 5 min, 4° C.), and the supernatant was used as an enzyme source.
as §2

5α-reductase = settings: patients with BPH; cited from earlier work
[2] = plasma, oral single dose 100 mg/kg, read-out: Conc (plasma)
[3] = plasma, oral single dose 300 mg/kg, read-out: Conc (plasma)
[4] = prostate, oral single dose 100 mg/kg, read-out: Conc (prostate)
[5] = prostate, oral single dose 300 mg/kg, read-out: Conc (prostate)

Row | Compound | IC50 (human 17βHSD type 5) [nM] | concentration at 2 h [1, 2] [µM] | concentration at 2 h [1, 4] [µM] | IC50 (human 17βHSD type 3) [nM] | other results
1 | O=C(O)c1c(Cl)n(Cc2ccc(Cl)cc2)c2ccccc12 [(1), reference compound] | > 10000 | – | – | – | –
2 | O=C(O)c1c(Cl)n(Cc2ccc(Cl)cc2Cl)c2ccccc12 [(2), reference compound] | > 10000 | – | – | – | 17βHSD type 5 inhibitory activity (in words) (human 17βHSD type 5; summary of Table 51): scarcely exhibited 17βHSD type 5 inhibitory activity
3 | O=C(O)c1cn(S(=O)(=O)c2ccccc2)c2ccccc12 [Example 1, 1-(phenylsulfonyl)-1H-indole-3-carboxylic acid] | – | 57.4 | 13.3 | – | concentration at 2 h ([1]; plasma, oral single dose 30 mg/kg, read-out: Conc (plasma)): 17 µM; concentration at 2 h [1, 3]: 145 µM; concentration at 2 h ([1]; prostate, oral single dose 30 mg/kg, read-out: Conc (prostate)): 5.3 µM; concentration at 2 h [1, 5]: 47.4 µM
4 | COc1ccc(S(=O)(=O)n2cc(C(=O)O)c3ccccc32)cc1 [Example 133, 1-[(4-methoxyphenyl)sulfonyl]-1H-indole-3-carboxylic acid] | 3100 | – | – | > 10000 | –
5 | Cc1ccc(S(=O)(=O)n2cc(C(=O)O)c3ccccc32)cc1 [Example 138] | 330 | – | – | > 10000 | –
6 | O=C(O)c1cn(S(=O)(=O)c2ccc(Br)cc2)c2ccccc12 [Example 144] | 90 | 38.5 | 7.2 | > 10000 | concentration at 2 h [1, 3]: 79.1 µM; concentration at 2 h [1, 5]: 24.8 µM
7 | COc1cccc2c1c(C(=O)O)cn2S(=O)(=O)c1ccccc1 [Example 155] | 5500 | 88.4 | 23 | > 10000 | –
8 | Cc1ccc2c(c1)c(C(=O)O)cn2S(=O)(=O)c1ccccc1 [Example 163] | 220 | 88.8 | 19.1 | > 10000 | –
9 | CCc1cccc2c(C(=O)O)cn(S(=O)(=O)c3ccccc3)c12 [Example 168] | 85 | – | – | > 10000 | –
10 | O=C(O)c1cn(S(=O)(=O)c2ccccc2)c2ccc(F)cc12 [Example 175] | 120 | 83.8 | 8.6 | 8900 | –
11 | O=C(O)c1cn(S(=O)(=O)c2ccccc2)c2c(F)cccc12 [Example 187] | 2200 | 69.7 | 12.2 | > 10000 | –
12 | O=C(O)c1cn(S(=O)(=O)c2ccccc2)c2ccc(Cl)cc12 [Example 190] | 690 | – | – | > 10000 | concentration at 2 h [1, 3]: 226 µM; concentration at 2 h [1, 5]: 37.4 µM
13 | O=C(O)c1cn(S(=O)(=O)c2ccccc2)c2c(Cl)cccc12 [Example 191] | 300 | – | – | > 10000 | –
14 | O=C(O)c1cn(S(=O)(=O)c2ccc(Br)cc2)c2c(Cl)cccc12 [Example 192] | 69 | 57.3 | 9.4 | > 10000 | concentration at 2 h [1, 3]: 126 µM; concentration at 2 h [1, 5]: 24.9 µM
15 | CC(C)c1ccc(S(=O)(=O)n2cc(C(=O)O)c3cccc(Cl)c32)cc1 [Example 193] | 130 | – | – | > 10000 | –
16 | Cc1cc(Br)ccc1S(=O)(=O)n1cc(C(=O)O)c2cccc(Cl)c21 [Example 194] | 190 | – | – | 6200 | –
17 | O=C(O)c1cn(S(=O)(=O)c2ccc(Br)cc2)c2cc3c(cc12)OCO3 [Example 203] | 2000 | – | – | > 10000 | –
18 | O=C(O)c1cn(S(=O)(=O)c2ccc(Br)cc2)c2c1CCCC2 [Example 208] | 2200 | – | – | > 10000 | –
19 | CC(C)(C)NC(=O)[C@H]1CC[C@H]2[C@@H]3CC[C@H]4NC(=O)C=C[C@]4(C)[C@H]3CC[C@]12C [finasteride] | – | – | – | – | concentration of DHT in the prostate after administration, relative to the concentration before the administration (5α-reductase): about 20%; increase of the concentration of testosterone in the prostate (5α-reductase): 4 fold
